Experimental data as given in patent publication EP0334055A2, “Substituted benzoxazinones, several processes and intermediates for their preparation and their use as herbicides” (BAYER AG, priority 1988, dated 1989).

Experiments:
[1] = system: Testpflanzen; test: Pre-emergence test (herbicidal damage to test plants); type: in vivo; details: damage rated after three weeks against untreated control, compared with Vergleichssubstanz (A) (Oxadiazone/Ronstar)
Description: Lösungsmittel: 5 Gewichtsteile Aceton Emulgator: 1 Gewichtsteil Alkylarylpolyglykolether
(§1) Zur Herstellung einer zweckmäßigen Wirkstoffzubereitung vermischt man 1 Gewichtsteil Wirkstoff mit der angegebenen Menge Lösungsmittel, gibt die angegebene Menge Emulgator zu und verdünnt das Konzentrat mit Wasser auf die gewünschte Konzentration.
Samen der Testpflanzen werden in normalen Boden ausgesät und nach 24 Stunden mit der Wirkstoffzubereitung begossen. Dabei hält man die Wassermenge pro Flächeneinheit zweckmäßigerweise konstant. Die Wirkstoffkonzentration in der Zubereitung spielt keine Rolle, entscheidend ist nur die Aufwandmenge des Wirkstoffs pro Flächeneinheit. Nach drei Wochen wird der Schädigungsgrad der Pflanzen bonitiert in % Schädigung im Vergleich zur Entwicklung der unbehandelten Kontrolle. Es bedeuten: 0 % = keine Wirkung (wie unbehandelte Kontrolle) 100 % = totale Vernichtung

[2] = system: Testpflanzen; test: Post-emergence test (herbicidal damage to test plants); type: in vivo; details: plants 5 - 15 cm, 2000 l Wasser/ha, damage rated after three weeks, compared with Vergleichssubstanz (A) (Oxadiazone/Ronstar)
Description: Lösungsmittel: 5 Gewichtsteil Aceton Emulgator: 1 Gewichtsteil Alkylarylpolyglykolether
as §1
Mit der Wirkstoffzubereitung spritzt man Testpflanzen, welche eine Höhe von 5 - 15 cm haben so, daß die jeweils gewünschten Wirkstoffmengen pro Flächeneinheit ausgebracht werden. Die Konzentration der Spritzbrühe wird so gewählt, daß in 2000 l Wasser/ha die jeweils gewünschten Wirkstoffmengen ausgebracht werden. Nach drei Wochen wird der Schädigungsgrad der Pflanzen bonitiert in % Schädigung im Vergleich zur Entwicklung der unbehandelten Kontrolle.
Es bedeuten: 0 % = keine Wirkung (wie unbehandelte Kontrolle) 100 % = totale Vernichtung

Molecule | Wirksamkeit gegenüber der Vergleichssubstanz (A) [1] | Wirksamkeit gegenüber der Vergleichssubstanz (A) [2]
2-(3,4-Dihydro-3-oxo-4-propargyl-2H-1,4-benzoxazinyl)-3-chloro-4,5,6,7-tetrahydro-2H-indazol [Beispiel 31] | deutliche Überlegenheit | deutliche Überlegenheit
7-Fluor-6-trimethylpyrazolyl-4-propargyl-3,4-dihydro-3-oxo-2H-1,4-benzoxazin [Beispiel 4] | deutliche Überlegenheit | deutliche Überlegenheit
CC(C)(C)c1nn(-c2cc3c(cc2F)OCC(=O)N3)c(=O)o1 [Beispiel 3, 7-Fluor-6-(2-tert-butyl-5-oxo-4,5-dihydro-1H-1,3,4-oxadiazol-3-yl)-3,4-dihydro-3-oxo-2H-1,4-benzoxazin] | deutliche Überlegenheit | deutliche Überlegenheit
C#CCN1C(=O)COc2cc(F)c(-n3nc(C(C)(C)C)oc3=O)cc21 [Beispiel 5, 7-Fluor-4-propargyl-6-(2-tert-butyl-5-oxo-4,5-dihydro-1H-1,3,4-oxadiazol-3-yl)-3,4-dihydro-3-oxo-2H-1,4-benzoxazin] | deutliche Überlegenheit | deutliche Überlegenheit
C#CCN1C(=O)COc2cc(F)c(-n3nc(C)c(Cl)c3C)cc21 [Beispiel 24, 7-Fluor-6-(3,5-dimethyl-4-chlorpyrazol)-4-propargyl-3,4-dihydro-3-oxo-2H-1,4-benzoxazin] | deutliche Überlegenheit | –
O=C1COc2ccc(-n3nc4c(c3Cl)CCCC4)cc2N1 [Beispiel 30, 2-(3,4-dihydro-3-oxo-2H-1,4-benzoxazinyl)-3-chloro-4,5,6,7-tetrahydro-2H-indazol] | deutliche Überlegenheit | –
